SMILES strings stand for the structures.

Format in all cases: cell-based
One assay deals with HL60 cells. The assay is described as follows: Anti-proliferation on HL60 cells (CellTiter-Glo, 3 days). The following applies: Homo sapiens, HL-60, 72 h, 3 days incubation, CTG luminescence, IC50 by XLfit, read-out: HL60 cells Proliferation inhibitory activity. As for the experimental part:
HL60 cells (Cell Bank of Chinese Academy of Sciences) in the logarithmic growth phase were counted and plated evenly in a 96-well transparent bottom white plate at 20000 cells per well and 100 μL per well.
A certain amount of the compound of the present invention was weighed and diluted with DMSO to a 10 mM stock solution. The culture medium RPMI-1640 (meilunbio, MA0215) corresponding to the cells were taken, and the compound was diluted to the concentration required by the test, shaken gently and mixed evenly. 50 μL of the gradient dilution of the diluted compound was added to each well of the plated cells, and 50 μL of 0.1% DMSO was added to the control group. The plate was shaken gently, mixed evenly and incubated in a cell culture incubator for 3 days.
• 3.1 The CellTiter-Glo™ (CTG) (purchased from Promega, Cat. No. G9242) reagent was taken in advance from the −20° C. refrigerator and equilibrated to room temperature in the dark. Cell Titer-Glo buffer and Cell Titer-Glo substrate were mixed at a ratio of 1:1 to prepare a CTG detection reagent. • 3.2 The 96-well plate was taken out and inspected under a microscope for growth. • 3.3 The bottom of the 96-well plate was tagged with white paper, and then the plate was wrapped with tin foil paper, shaken at 37° C. at 300 r for 10 min and mixed evenly. • 3.4. 50 μL of CTG detection reagent was added to each well, Luminescence signal was detected using a microplate reader Biotek Synergy Hi, and the inhibition rate was calculated. IC50 values of the compounds were calculated by XLfit 5.5.0 software to evaluate the proliferation inhibitory activity on HL60 cells.

In another assay the target is T1, c-Myc protein (Homo sapiens, UniProt P01106).
T1 construct: degradation of myc and GSPT1 proteins in HL60 cells; endogenous in cells; host or cells: HL60
T1 sequence (P01106 whole entry): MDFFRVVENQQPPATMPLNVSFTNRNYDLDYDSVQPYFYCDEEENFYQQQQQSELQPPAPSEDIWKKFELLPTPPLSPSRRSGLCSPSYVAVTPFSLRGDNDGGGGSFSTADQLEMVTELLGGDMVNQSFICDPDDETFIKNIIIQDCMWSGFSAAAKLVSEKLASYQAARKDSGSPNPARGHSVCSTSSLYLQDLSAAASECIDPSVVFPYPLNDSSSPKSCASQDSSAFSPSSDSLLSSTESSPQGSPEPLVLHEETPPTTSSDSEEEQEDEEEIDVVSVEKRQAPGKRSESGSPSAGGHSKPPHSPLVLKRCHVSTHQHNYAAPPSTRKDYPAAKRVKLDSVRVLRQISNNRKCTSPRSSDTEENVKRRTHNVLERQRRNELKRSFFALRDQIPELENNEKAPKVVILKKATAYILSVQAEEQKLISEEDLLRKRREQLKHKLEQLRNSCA
The assay is described as follows: c-Myc protein degradation in HL60 cells (Western blot). To be noted: HL-60, compound at 10 nM, 24 h, gray value relative to Ctrl (DMSO), read-out: Remaining amount of c-Myc protein (@10 nM/Ctrl). As for the experimental part:
(§1) HL60 cells in the exponential growth phase were digested and plated into a 6-well plate at 1×10^6 cells per well. The cell culture medium was RPMI-1640 (meilunbio, MA0215). After a day of adherent growth of the cells, the compound of the present invention was added as a test drug for culture, and proteins were extracted 24 h later (Ctrl meant adding only DMSO at the same volume).
(§2) In the 6-well plate, the culture medium RPMI-1640 (meilunbio, MA0215) was removed, and the cells were washed once with PBS, digested with trypsin, and centrifuged and collected separately into 1.5 mL centrifuge tubes. 100 μL of RIPA lysis buffer (containing 100 μM PMSF) was added to each tube, mixed thoroughly, allowed to stand on ice for 30 min and then centrifuged at 12000 rpm at 4° C. using a centrifuge for 20 min. The supernatant was used for Western blotting experiments. The sample can be stored at −80° C.
(§3) By using the BCA protein concentration determination kit (from Thermo Fisher, Cat. No. 23225), the BSA standard determination solution and the samples to be tested (the samples to be tested can be diluted and then tested) were prepared according to the table A below. Samples were added to the 96-well plate. Each well was supplemented with PBS to 20 μL, and then 200 μL of BCA working solution (prepared according to the kit) was added respectively and mixed evenly. The plate was placed at 60° C. for 10 min, and then the absorbance at 562 nm was detected. After the reading was recorded, a standard curve was plotted using concentration gradients of the standards, and the absorbance of the samples was substituted to calculate the protein concentration of the samples.
(§4) • 2.1 Protein denaturation: RIPA protein buffer (purchased from Solarbio, Cat. No. R0010) and 5× Loading Buffer (SDS, glycerin, bromophenol blue, TRIS) (purchased from Solarbio, Cat. No. P1040) were added, and the protein samples were denatured at 100° C. for 5 min. • 2.2 Sample loading and electrophoresis: 10% precast gel and the corresponding electrophoresis buffer were used. The same mass of protein sample and protein ladder (purchased from thermo, Cat. No. 26617) were loaded into each well, and electrophoresis at 200 V was performed for 30 min. • 2.3 […]: The gel was excised to remove the excess part. Transferring to PVDF membrane was performed by the wet transfer method (before use, it was necessary to activate the PVDF membrane with methanol for 1 min) at 300 mA for 2 h, during which a lot of heat was generated, and thus cooling with an ice box was required. • 2.4 Blocking: After the transferring, the PVDF membrane was placed in 5% skim milk and blocked with shaking at room temperature for 1 h. • 2.5 Incubating with primary antibody: The PVDF membrane was cut according to the molecular weight indicated on the marker and placed in c-myc (purchased from abcam, Cat. No. ab32072), or GSPT1 (purchased from abcam, Cat. No. ab234433), or CK1α (purchased from abcam, Cat. No. ab206652), or IKZF2 (purchased from proteintech, Cat. No. 13554-1-AP), and GAPDH (purchased from CST, Cat. No. #97166) primary antibodies. The antibodies were diluted with TBST buffer (a solution prepared from TRIS, KCL and NaCl and adjusted to pH 7.4 with hydrochloric acid, and Tween 20 was added) at a ratio of 1:1000, and blocked overnight on a shaker at 4° C. • 2.6 Incubating with secondary antibody: The PVDF membrane incubated with the primary antibody was washed with TBST for 3 times, each time for 10 min. After washing, the membrane was placed in the secondary antibody of the corresponding species, and incubated at room temperature in a shaker for 2 h. • 2.7 Washing membrane and exposure: After incubated with the secondary antibodies, the membrane was washed 3 times with TBST on a shaker, 10 minutes each time. […]
In general terms: In western blotting, separated proteins are transferred to a membrane and probed.

For another assay, the target named is T2, GSPT1 protein (Homo sapiens, UniProt P15170).
T2 construct: degradation of myc and GSPT1 proteins in HL60 cells; endogenous in cells; host or cells: HL60
T2 sequence (P15170 whole entry): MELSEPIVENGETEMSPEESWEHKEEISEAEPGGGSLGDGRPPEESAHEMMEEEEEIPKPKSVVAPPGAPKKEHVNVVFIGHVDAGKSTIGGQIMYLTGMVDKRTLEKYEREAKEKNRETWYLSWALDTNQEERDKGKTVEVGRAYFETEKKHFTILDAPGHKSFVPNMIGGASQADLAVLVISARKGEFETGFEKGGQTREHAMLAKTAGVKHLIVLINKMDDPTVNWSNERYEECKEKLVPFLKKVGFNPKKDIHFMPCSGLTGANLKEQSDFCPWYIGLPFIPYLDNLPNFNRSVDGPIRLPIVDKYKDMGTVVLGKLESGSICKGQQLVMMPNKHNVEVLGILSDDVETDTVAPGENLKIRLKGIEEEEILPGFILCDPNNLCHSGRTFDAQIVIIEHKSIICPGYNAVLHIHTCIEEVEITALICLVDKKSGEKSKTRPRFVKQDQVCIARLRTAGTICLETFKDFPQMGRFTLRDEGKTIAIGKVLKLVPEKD
The assay is described as follows: GSPT1 protein degradation in HL60 cells (Western blot). The following applies: for remaining GSPT1 protein at 0.01 µM: HL-60, compound at 10 nM, 24 h, gray value relative to Ctrl (DMSO), read-out: Remaining amount of GSPT1 protein (@10 nM/Ctrl). As for the experimental part:
as §1, §2, §3, §4

As for `O=C1CCC(N2Cc3cc(NC(=O)CC4CCN(c5cc(-c6cccc7ccccc67)ccn5)CC4)ccc3C2=O)C(=O)N1` (stereo not drawn) [Compound A17], the IC50 in the assay on HL60 cells is 1.2 nM. The remaining activity at 0.01 µM on c-Myc protein came to 23%. For the molecule `O=C1CCC(N2Cc3cc(NC(=O)CC4CCN(c5ncc(-c6cccc7ccccc67)s5)CC4)ccc3C2=O)C(=O)N1` (stereo not drawn) [Compound A24], in the assay with HL60 cells, the IC50 came to 0.5 nM. The remaining activity at 0.01 µM on c-Myc protein was determined as 0%. As for `O=C1CCC(N2Cc3cc(NC(=O)CC4CCN(c5ncc(-c6cccc7ccccc67)o5)CC4)ccc3C2=O)C(=O)N1` (stereo not drawn) [Compound A28], the IC50 with HL60 cells was 0.9 nM. Moreover, at c-Myc protein, the remaining activity at 0.01 µM was found to be 43%. Regarding `O=C1CCC(N2Cc3cc(C(=O)NCC4CCN(c5ncc(-c6cccc7ccccc67)cn5)CC4)ccc3C2=O)C(=O)N1` (stereo not drawn) [Compound A29], in the assay on HL60 cells, the IC50 is 0.2 nM. Besides, the remaining activity at 0.01 µM at c-Myc protein is 13%. With `O=C1CCC(N2Cc3cc(NC(=O)CC4CCN(c5ncc(-c6cccc7ccccc67)cn5)CC4)ccc3C2=O)C(=O)N1` (stereo not drawn) [Compound A30], the IC50 in the assay on HL60 cells was under 0.2 nM. For the same molecule, the remaining activity at 0.01 µM on c-Myc protein came to 14%. For `O=C1CCC(N2Cc3cc(NC(=O)CC4CCN(c5ccc(-c6cccc7ccccc67)nc5)CC4)ccc3C2=O)C(=O)N1` (stereo not drawn) [Compound A37] the same measures were 0.2 nM and 44%. As to `O=C1CCC(N2Cc3cc(C(=O)NCC4CCN(c5nccc(-c6ccc7ccccc7c6)n5)CC4)ccc3C2=O)C(=O)N1` (stereo not drawn) [Compound A38], the IC50 in the assay with HL60 cells is 0.9 nM. Moreover, the remaining activity at 0.01 µM at c-Myc protein stood at 52%. In the same order, the values of `O=C1CCC(N2Cc3cc(NC(=O)CC4CCN(c5ccc(-c6cccc7cccnc67)cn5)CC4)ccc3C2=O)C(=O)N1` (stereo not drawn) [Compound A43] are under 0.2 nM and 23%.

With `O=C1CCC(N2Cc3cc(NC(=O)CC4CCN(c5ccc(-c6cccc7cccc(F)c67)cn5)CC4)ccc3C2=O)C(=O)N1` (stereo not drawn) [Compound A47], the IC50 with HL60 cells was under 0.2 nM. In addition, the remaining activity at 0.01 µM at c-Myc protein worked out at 19%. In the same order, the values of `O=C1CCC(N2Cc3cc(NC(=O)CC4CCN(c5ncc(-c6cccc(Cl)c6)cn5)CC4)ccc3C2=O)C(=O)N1` (stereo not drawn) [Compound A53] are under 0.2 nM and 10%.

On to `O=C1CCC(N2Cc3cc(CNCC4CCN(c5ncc(-c6cccc7ccccc67)s5)CC4)ccc3C2=O)C(=O)N1` (stereo not drawn) [Compound A61], for which the IC50 in the assay with HL60 cells stood at 0.3 nM. Further, the remaining activity at 0.01 µM on c-Myc protein is 0%. Besides, the remaining GSPT1 protein at 0.01 µM at GSPT1 protein is 4%. For `O=C1CCC(N2Cc3cc(CNCC4CCN(c5cnc(-c6cccc7ccccc67)cn5)CC4)ccc3C2=O)C(=O)N1` (stereo not drawn) [Compound A63] the same measures were 0.2 nM, 19% and 5%. In the case of `O=C1CCC(N2Cc3cc(CNCC4CCN(c5cnc(-c6cccc7ccccc67)nc5)CC4)ccc3C2=O)C(=O)N1` (stereo not drawn) [Compound A64], the IC50 in the assay with HL60 cells amounted to 10 nM. For the same molecule, the remaining activity at 0.01 µM at c-Myc protein worked out at 0%. Moreover, the remaining GSPT1 protein at 0.01 µM at GSPT1 protein was 5%.

`O=C1CCC(N2Cc3cc(CNCC4CCN(c5ncc(-c6cccc(Cl)c6)cn5)CC4)ccc3C2=O)C(=O)N1` (stereo not drawn) [Compound A66]: the IC50 in the assay on HL60 cells is under 0.2 nM. The remaining activity at 0.01 µM on c-Myc protein amounted to 9%.

Regarding `O=C1CCC(N2Cc3ccc(CNCC4CCN(c5ncc(-c6cccc(Cl)c6)cc5C(F)(F)F)CC4)cc3C2)C(=O)N1` (stereo not drawn) [Compound A145], in the assay with HL60 cells, the IC50 was found to be 387 nM. Moreover, the “Degradation of GSPT1 protein in HL60 cells at 300 nM (FIG. 2, FIG. 3, in words)” value on GSPT1 protein is on record as “significantly degrade GSPT1 protein”.

Take `O=C1CCC(n2nc3cc(CNCC4CCN(c5ncc(-c6cccc(Cl)c6)cc5C(F)(F)F)CC4)ccn3c2=O)C(=O)N1` (stereo not drawn) [Compound A146]: in the assay on HL60 cells, the IC50 was determined as 139 nM. Also, the “Degradation of GSPT1 protein in HL60 cells at 300 nM (FIG. 2, FIG. 3, in words)” value on GSPT1 protein is “significantly degrade GSPT1 protein”. With `O=C1CCC(NS(=O)(=O)c2ccc(CNCC3CCN(c4ncc(-c5cccc(Cl)c5)cc4C(F)(F)F)CC3)cc2)C(=O)N1` (stereo not drawn) [Compound A164], the IC50 in the assay on HL60 cells was 7230 nM.

`O=C1CCC(NCc2ccc(CNCC3CCN(c4ncc(-c5cccc(Cl)c5)cc4C(F)(F)F)CC3)cc2)C(=O)N1` (stereo not drawn) [Compound A165]: the IC50 with HL60 cells came out at 9560 nM. On to `O=C1CCC(NC(=O)c2ccc(C(=O)NCC3CCN(c4ncc(-c5cccc(Cl)c5)cc4C(F)(F)F)CC3)cc2)C(=O)N1` (stereo not drawn) [Compound A166], for which the IC50 in the assay on HL60 cells turned out to be 2670 nM. As for `O=C1CCC(NC(=O)Cc2ccc(CNCC3CCN(c4ncc(-c5cccc(Cl)c5)cc4C(F)(F)F)CC3)cc2)C(=O)N1` (stereo not drawn) [Compound A167], in the assay on HL60 cells, the IC50 was 9580 nM. As to `O=C1CCC(n2cc(-c3ccc(CNCC4CCN(c5ncc(-c6cccc(Cl)c6)cc5C(F)(F)F)CC4)cc3)nn2)C(=O)N1` (stereo not drawn) [Compound A168], in the assay on HL60 cells, the IC50 is 109 nM. As to `O=C1C[C@H](N2Cc3cc(CNCC4CCN(c5ncc(-c6cccc(F)c6)cc5F)CC4)ccc3C2=O)C(=O)N1` [Compound A170], the IC50 in the assay on HL60 cells was determined as 9860 nM.

On to `O=C1C[C@@H](N2Cc3cc(CNCC4CCN(c5ncc(-c6cccc(Cl)c6)cc5C(F)(F)F)CC4)ccc3C2=O)C(=O)N1` [Compound A171], for which, in the assay with HL60 cells, the IC50 was determined as 1570 nM. On to `O=C1C[C@H](N2Cc3cc(CNCC4CCN(c5ncc(-c6cccc(F)c6)cc5C(F)(F)F)CC4)ccc3C2=O)C(=O)N1` [Compound A172], for which the IC50 in the assay on HL60 cells was found to be 9990 nM. Take `O=C1C[C@@H](N2Cc3cc(CNCC4CCN(c5ncc(-c6cccc(F)c6)cc5C(F)(F)F)CC4)ccc3C2=O)C(=O)N1` [Compound A173]: the IC50 with HL60 cells was 9370 nM. As to `O=C1CCC(N2C(=O)c3cccc4c(CNCC5CCN(c6ncc(-c7cccc(Cl)c7)cc6C(F)(F)F)CC5)ccc2c34)C(=O)N1` (stereo not drawn) [Compound A174], the IC50 with HL60 cells was determined as 3920 nM. The same measure, in the same setting: in the case of `O=C1CCC(N2C(=O)c3cccc4c(CNCC5CCN(c6ncc(-c7cccc(F)c7)cc6F)CC5)ccc2c34)C(=O)N1` (stereo not drawn) [Compound A175] it was 11500 nM. As to `Cn1nc(N2CCC(=O)NC2=O)c2cc(CNCC3CCN(c4ncc(-c5cccc(Cl)c5)cc4C(F)(F)F)CC3)ccc21` [Compound A176], in the assay with HL60 cells, the IC50 is 5210 nM. In the case of `Cn1nc(N2CCC(=O)NC2=O)c2ccc(CNCC3CCN(c4ncc(-c5cccc(Cl)c5)cc4C(F)(F)F)CC3)cc21` [Compound A177], the IC50 with HL60 cells worked out at 4350 nM.

The record behind these values is patent publication US20250059162A1, “MULTI-PROTEIN DEGRADATION AGENT HAVING IMIDE SKELETON” (SUZHOU KINTOR PHARMACEUTICALS, INC., priority 2021, published 2025).
